Key:
[1] = biological target: T1, PXR (Homo sapiens, UniProt O75469); test: PXR reporter (p3A4-luc luciferase) assay in LS180 cells transiently transfected with wild-type PXR; conditions: for FOLD INDUCTION of PXR reporter luciferase activity: 24 h, over UT
T1 sequence (O75469 1-434): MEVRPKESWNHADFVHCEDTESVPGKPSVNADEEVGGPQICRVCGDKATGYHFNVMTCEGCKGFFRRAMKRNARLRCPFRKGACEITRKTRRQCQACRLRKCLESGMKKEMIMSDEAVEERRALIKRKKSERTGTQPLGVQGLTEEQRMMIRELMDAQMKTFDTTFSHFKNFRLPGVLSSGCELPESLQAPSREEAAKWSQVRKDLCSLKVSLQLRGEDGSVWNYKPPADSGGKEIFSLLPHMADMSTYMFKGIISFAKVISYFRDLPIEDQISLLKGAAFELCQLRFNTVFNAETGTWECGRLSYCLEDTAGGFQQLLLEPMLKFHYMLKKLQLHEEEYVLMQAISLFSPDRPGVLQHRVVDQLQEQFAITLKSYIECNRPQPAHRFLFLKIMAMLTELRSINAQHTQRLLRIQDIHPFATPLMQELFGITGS
Description: Incubations were performed in four technical replicates. After the treatments, cells were lysed and luciferase activity was measured on Tecan Infinite M200 Pro plate reader (Schoeller Instruments, Prague, Czech Republic). The data are expressed as fold induction ± SD of luciferase activity over the control cells (agonistic mode—in the absence of a model ligand) or as a percentage of maximal activation ± SD (antagonistic mode—in the presence of a model ligand). […] For all the transfection experiments, specifically multiplexed transfections, the control wells were mock‐transfected ([…]). However, to exclude non‐specific binding of PXR (or other factors) upstream of the luciferase gene within non‐PXR‐binding elements, we performed pilot experiments in different cell passages (P11, P14, and P17) of LS174T cells using a mock luciferase plasmid (luciferase not containing an upstream PXR‐binding element of the CYP3A4 promoter).

[2] = biological target: T2, AhR (Homo sapiens, UniProt P35869); test: AhR reporter assay, HepG2 cells stably expressing pCYP1A1 luciferase (AZ-AHR); type: cell-based; conditions: for FOLD INDUCTION (AZ-AHR luciferase): AZ-AHR cells, fold vs DMSO
T2 construct: endogenous in cells; host or cells: AZ-AHR (HepG2)
T2 sequence (P35869 11-848): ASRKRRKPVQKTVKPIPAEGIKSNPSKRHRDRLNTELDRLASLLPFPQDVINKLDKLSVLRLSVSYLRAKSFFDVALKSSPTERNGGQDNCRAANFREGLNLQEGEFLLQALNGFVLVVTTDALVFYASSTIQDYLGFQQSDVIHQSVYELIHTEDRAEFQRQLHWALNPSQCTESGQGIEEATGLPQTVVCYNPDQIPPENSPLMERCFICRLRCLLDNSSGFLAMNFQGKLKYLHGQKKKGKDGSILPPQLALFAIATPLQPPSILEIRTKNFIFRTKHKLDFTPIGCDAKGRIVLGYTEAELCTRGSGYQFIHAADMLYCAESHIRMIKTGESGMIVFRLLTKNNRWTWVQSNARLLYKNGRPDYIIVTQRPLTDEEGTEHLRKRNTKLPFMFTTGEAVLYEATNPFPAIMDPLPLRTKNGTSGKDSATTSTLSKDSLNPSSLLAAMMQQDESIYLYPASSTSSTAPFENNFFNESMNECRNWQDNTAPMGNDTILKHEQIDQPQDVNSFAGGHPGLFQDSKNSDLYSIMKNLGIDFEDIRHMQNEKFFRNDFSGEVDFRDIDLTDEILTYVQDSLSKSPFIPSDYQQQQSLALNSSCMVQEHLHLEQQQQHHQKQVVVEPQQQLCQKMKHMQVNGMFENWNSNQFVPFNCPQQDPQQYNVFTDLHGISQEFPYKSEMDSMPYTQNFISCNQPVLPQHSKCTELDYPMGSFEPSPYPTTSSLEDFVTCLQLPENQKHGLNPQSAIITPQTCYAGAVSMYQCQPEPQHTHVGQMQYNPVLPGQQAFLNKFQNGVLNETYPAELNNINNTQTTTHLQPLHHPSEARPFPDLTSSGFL
Description: Incubations were performed in four technical replicates.

Row | SMILES | aver (mean luciferase signal of H1-H4) ([1]; 1 nM) | FOLD INDUCTION of PXR reporter luciferase activity ([1]; 1 nM) [fold] | aver (mean luciferase signal of H1-H4) ([1]; 10 nM) | FOLD INDUCTION of PXR reporter luciferase activity ([1]; 10 nM) [fold] | aver (mean luciferase signal of H1-H4) ([1]; 100 nM) | FOLD INDUCTION of PXR reporter luciferase activity ([1]; 100 nM) [fold] | aver (mean luciferase signal of H1-H4) ([1]; 1 uM) | FOLD INDUCTION of PXR reporter luciferase activity ([1]; 1 uM) [fold] | aver (mean luciferase signal of H1-H4) ([1]; 10 uM) | FOLD INDUCTION of PXR reporter luciferase activity ([1]; 10 uM) [fold] | aver (mean luciferase signal of H1-H4) ([1]; 25 uM) | FOLD INDUCTION of PXR reporter luciferase activity ([1]; 25 uM) [fold] | AhR activation (in words) [2] | FOLD INDUCTION (AZ-AHR luciferase) ([2]; 1 nM) [fold] | FOLD INDUCTION (AZ-AHR luciferase) ([2]; 10 nM) [fold] | FOLD INDUCTION (AZ-AHR luciferase) ([2]; 100 nM) [fold] | FOLD INDUCTION (AZ-AHR luciferase) ([2]; 1µM) [fold] | FOLD INDUCTION (AZ-AHR luciferase) ([2]; 10 µM) [fold] | AhR activation ([2]; 10 μM) [fold]
1 | O=S(=O)(c1ccccc1)n1c(C(O)(Cc2cc3ccccc3[nH]2)c2ccncc2)cc2ccccc21 (racemic) [FKK7] | 4342.5 | 1.1 | 4393.8 | 1.2 | 6280.8 | 1.7 | 60156.8 | 15.8 | 84023.3 | 22.1 | 80527.0 | 21.2 | variable degrees of dose‐dependent AhR activation profiles | 0.746 | 0.738 | 0.7 | 3.6 | 75.5 | 
2 | OC(c1ccncc1)(c1cc2ccccc2[nH]1)c1cc2ccccc2[nH]1 [FKK2] | 2792.0 | 1.3 | 2989.5 | 1.4 | 3008.8 | 1.4 | 7365.5 | 3.4 | 41425.5 | 19.4 | 32321.0 | 15.1 |  | 0.9 | 0.9 | 2.1 | 15.0 | 467.5 | > 100
3 | OC(Cc1cc2ccccc2[nH]1)(c1ccncc1)c1cc2ccccc2[nH]1 (stereo not drawn) [FKK10] | 4648.0 | 1.3 | 3990.3 | 1.1 | 4278.0 | 1.2 | 3689.5 | 1.1 | 16756.3 | 4.8 | 52110.3 | 15.0 | variable degrees of dose‐dependent AhR activation profiles | 0.5 | 0.318 | 0.8 | 1.3 | 21.9 | 

From article PMC7136958, “Targeting the pregnane X receptor using microbial metabolite mimicry” (EMBO Molecular Medicine, 2020)
